We go through 2 molecules from paper PMC9105604, “Parathyroid Hormone-Related Peptide and Its Analog, Abaloparatide, Attenuate Lethal Myocardial Ischemia-Reperfusion Injury” (Journal of Clinical Medicine, 2022).

Data set [1] has as its system HL-1 cardiomyocytes. Description: MTT viability of HL-1 cardiomyocytes with or without MEK-ERK inhibitor PD98059 (Protocol 2B).
Description: (§2) The primary endpoint for Protocols 1A–C was HL-1 cell viability assessed using the MTT (3-(4,5-dimethythiazol-2-yl)-2,5-diphenyl tetrazolium bromide) assay (Sigma Aldrich, St. Louis, MO, USA). This well-established colorimetric method is based on the reduction of the soluble tetrazolium salt to purple formazan crystals by viable, metabolically active cells and quantified by measuring absorbance at 570 nm [25].
At 24 h after the onset of treatment, cells underwent either 2 h of SI + 24 h reoxygenation or a time-matched period of normoxia (n = 2 independent replicates per group). At 24 h following relief of SI, cell viability was quantified using the MTT assay as described in Protocol 1.
Data set [2] concerns HL-1 cardiomyocytes. Description: MTT viability of HL-1 cardiomyocytes, simulated ischemia-reoxygenation or normoxia (Protocol 1). Type of data set: cell-based.
Description: Before initiating experiments, HL-1 cells were grown to ~80% confluence in 95% room air/5% CO2 at 37 °C in Claycomb medium supplemented with fetal bovine serum (10%), L-glutamine (2 mM), norepinephrine (0.1 mM), penicillin (100 U/mL) and streptomycin (100 µg/mL) [21, 22].
At 24 h after the onset of treatment, cells were subjected to 2 h of simulated ischemia (SI) + 24 h reoxygenation. During SI, Claycomb medium containing drug/placebo was replaced with drug-free hypoxia buffer at pH 6.6 (composed of NaCl (125 nM), KCl (8 mM), KH2PO4 (1.2 mM),1.25 mM MgSO4 (1.25 mM), CaCl2 (1.2 mM), NaHCO3 (6.25 mM), HEPES (20 mM), glucose (5.5 mM), 2-deoxy-D-glucose (20 mM), Na-lactate (5 mM): all ingredients from Sigma Aldrich, St. Louis, MO, USA) and the culture plates were sealed in a hermetic chamber with GasPak EZ Gas Generating Sachets (BD Biosciences, San Jose, CA, USA). Reoxygenation was achieved by removing the plates from the sealed chamber and exchanging the hypoxia buffer with serum-free Claycomb medium [21, 22]. Additional time- and treatment-matched normoxic cultures served as controls (n = 4 independent replicates per group).
as §2
Another data set relates to phospho-Akt. Kind of data set: Immunoblot of phospho-Akt in HL-1 cells after simulated ischemia-reperfusion (Protocol 2A). Type of data set: cell-based. The note with it: 10 nM, 24 h pretreatment, 2 h SI + 10 min reoxygenation; n = 3; vehicle 0.14 ± 0.01. The method, then: (§1) At 10 min post-reoxygenation, cells were harvested and lysed in RIPA buffer containing 2 protease and phosphatase inhibitors. The lysates were centrifuged at 14,000× g for 15 min, and the resultant supernatant was collected and probed for the expression of ERK (total and phosphorylated: antibodies from Cell Signaling Technology Inc., Danvers, MA, USA), PI3 kinase/Akt (total and phosphorylated: Cell Signaling Technology Inc., Danvers, MA, USA) and GAPDH (Sigma Aldrich Inc., St. Louis, MO, USA) using standard methods. Immunoreactive bands were identified by incubation with horseradish peroxidase (HRP)-conjugated secondary antibody, visualized using x-ray film, and quantified using the NIH ImageJ software.

The subject of a further data set is phospho-ERK. Description: Immunoblot of phospho-ERK in HL-1 cells after simulated ischemia-reperfusion (Protocol 2A). Type of data set: cell-based. The note with it: 10 nM, 24 h pretreatment, 2 h SI + 10 min reoxygenation; n = 3; vehicle 0.33 ± 0.09. On the procedure: as §1
For data set [3] the following is noted: in vivo, cited from earlier work.

Consider `COc1cccc(-c2cc(=O)c3ccccc3o2)c1N` [PD98059], for which the “HL-1 cell viability under normoxic conditions, alone or in combination (Protocol 2B)” value with HL-1 cardiomyocytes [1] (peptides 10 nM, PD98059 5 µM, 24 h, normoxia, n = 2, no statistics) is recorded as “neither PTHrP(1-36), abaloparatide, or PD98059, given alone or in combination, had an effect”.

abaloparatide: the “Concentration dependence of % viability / magnitude of protection after SI-reoxygenation” value in the data set with HL-1 cardiomyocytes [2] (24 h pretreatment, 2 h SI + 24 h reoxygenation, Protocols 1A, 1B, confirmed in 1C) is listed as “modestly but significantly greater in cells incubated with 10 nM”. For the same molecule, the “HL-1 cell viability after SI-reoxygenation” value in the data set on HL-1 cardiomyocytes [2] (24 h pretreatment, then 2 h simulated ischemia + 24 h reoxygenation, PTHrP(1-36) 10, 100 nM (n = 4), abaloparatide 0.1-100 nM (n = 5), versus vehicle) is given as “significantly better maintained”. In the data set with HL-1 cardiomyocytes [2] (time- and treatment-matched normoxic cultures), the “HL-1 cell viability under normoxic conditions” value is reported as “no effect”. For the same molecule, the “phospho-Akt expression (normalized to GAPDH)” value in the data set with phospho-Akt is “better preservation”. Moreover, the “phospho-ERK expression (normalized to total ERK)” value in the data set with phospho-ERK is given as “modest but significant increase”. The “Hemodynamic effects in post-menopausal women with osteoporosis” value in data set [3] (sc) was “modest and transient increases in heart rate and decreases in supine blood pressure”. Besides, the “Incidence of adverse cardiac events in treated subjects” value in data set [3] was “no evidence of an increase”. In addition, the “SI-reoxygenation-induced cell death (Protocol 2B)” value in the data set with HL-1 cardiomyocytes [1] (10 nM, 24 h pretreatment, 2 h SI + 24 h reoxygenation, n = 2, versus vehicle) was “attenuated”. The “Protective effect on HL-1 viability with co-administration of PD98059” value in the data set on HL-1 cardiomyocytes [1] (peptide 10 nM + PD98059 5 µM, 24 h, then 2 h SI + 24 h reoxygenation, n = 2) is recorded as “abrogated”.
